8 compounds from patent US20230219925A1, “BENZO FIVE-MEMBERED NITROGEN HETEROCYCLIC COMPOUND AND APPLICATION THEREOF” (GUANGZHOU INSTITUTES OF BIOMEDICINE AND HEALTH CHINESE …, priority 2020, published 2023) can be followed below.

The target in series [1] is T1, RORγ (Homo sapiens, UniProt P51449).
T1 sequence (P51449 269-508 limits assumed): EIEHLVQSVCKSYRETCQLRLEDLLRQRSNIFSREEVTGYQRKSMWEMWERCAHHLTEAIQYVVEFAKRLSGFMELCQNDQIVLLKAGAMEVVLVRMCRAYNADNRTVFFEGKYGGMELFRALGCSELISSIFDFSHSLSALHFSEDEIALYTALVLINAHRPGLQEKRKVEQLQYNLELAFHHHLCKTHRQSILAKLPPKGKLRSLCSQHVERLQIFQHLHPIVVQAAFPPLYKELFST
The series is described as follows: luciferase dual reporter gene assay, Gal4-RORγLBD in 293T cells. Particulars: IC50 (luciferase detection technique), RORγ transcriptional activity, Table 1.
Protocol: On the day before transfection, cells were prepared in the 96-well plate with a cell density of 1.5×10^4 cells/well. After 24 hours of adherent growth, transient transfection was performed with the transfection reagent Lipo-fectamine 2000 through a method of dual reporter gene co-transfection. The transfection reagent and the plasmids were separately diluted with the Opti-MEM Reagent. Gal4-RORγLBD (25 ng), pG5-luc genes (25 ng) and Renilla (5 ng) were added to each well, and after 24 hours of co-transfection, compounds having different concentrations were added. After 24 hours of incubation, the luciferase dual reporter gene detection assay kit was used for detecting luminescence signals. Three duplicate wells were set for each sample, and IC50 values (half maximal inhibitory concentrations) were calculated by software.

Series [2] concerns 22Rv1. The series is described as follows: Cell viability (Cell-Titer GLO), 22Rv1.
Protocol: (§1) Experimental method: 20 μL of a medium containing 500 to 1000 cells to be detected (the actual number of cells was related to cell cycle and cell volume) was plated into each well of the 384-well clear-bottom microplate. […] An inhibition curve was fitted by GraphPad Prism software, and IC50 was calculated.
Series [3] has as its target T2, hRORγ (Homo sapiens, UniProt P51449).
T2 sequence (P51449 1-518): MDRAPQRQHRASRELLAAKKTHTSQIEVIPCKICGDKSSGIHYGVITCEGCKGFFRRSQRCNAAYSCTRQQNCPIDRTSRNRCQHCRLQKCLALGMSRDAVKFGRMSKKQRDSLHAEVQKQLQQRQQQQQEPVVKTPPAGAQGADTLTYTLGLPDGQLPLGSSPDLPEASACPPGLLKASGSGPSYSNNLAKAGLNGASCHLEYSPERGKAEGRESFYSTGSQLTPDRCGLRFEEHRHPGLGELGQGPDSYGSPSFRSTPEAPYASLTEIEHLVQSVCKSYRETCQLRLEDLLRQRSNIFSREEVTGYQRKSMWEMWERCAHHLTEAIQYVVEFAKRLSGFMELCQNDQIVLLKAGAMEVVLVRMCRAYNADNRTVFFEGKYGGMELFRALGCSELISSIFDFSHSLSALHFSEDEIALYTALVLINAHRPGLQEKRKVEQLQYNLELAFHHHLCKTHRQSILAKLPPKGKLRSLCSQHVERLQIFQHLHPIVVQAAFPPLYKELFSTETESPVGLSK
Put plainly: protein thermal stability shift assay (TSA). Particulars: read-out: ΔTm (TSA detection technique), hRORγ 10 μM, compound 200 μM.

The target in series [4] is T3, RORα (Homo sapiens, UniProt P35398).
T3 sequence (P35398 272-510 limits assumed): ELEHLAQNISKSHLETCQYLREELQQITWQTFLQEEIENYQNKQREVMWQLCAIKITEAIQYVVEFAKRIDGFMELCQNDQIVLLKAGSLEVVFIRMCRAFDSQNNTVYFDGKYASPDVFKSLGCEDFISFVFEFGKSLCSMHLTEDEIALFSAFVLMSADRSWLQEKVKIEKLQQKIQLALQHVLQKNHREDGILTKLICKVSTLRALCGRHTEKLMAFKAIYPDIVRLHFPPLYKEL
Put plainly: Gal4-LBD luciferase selectivity test, RORα.
Protocol: (§2) On the day before transfection, cells were prepared in the 96-well plate with a cell density of 1.5×10^4 cells/well. After 24 hours of adherent growth, transient transfection was performed with the transfection reagent Lipo-fectamine 2000 through a method of dual reporter gene co-transfection. The transfection reagent and the plasmids were separately diluted with the Opti-MEM Reagent. […] After 24 hours of incubation, the luciferase dual reporter gene detection assay kit was used for detecting luminescence signals. Three duplicate wells were set for each sample, and IC50 values (half maximal inhibitory concentrations) were calculated by software.

Series [5] concerns C4-2B. The series is described as follows: Cell viability (Cell-Titer GLO), C4-2B. Particulars: read-out: Cell Viability IC50 C4-2B.
Protocol: as §1
Series [6] relates to LNCaP. Put plainly: Cell viability (Cell-Titer GLO), LNCaP.
Protocol: as §1
Series [7] has as its target T4, FXR (Homo sapiens, UniProt Q96RI1).
T4 sequence (Q96RI1 262-486 limits assumed): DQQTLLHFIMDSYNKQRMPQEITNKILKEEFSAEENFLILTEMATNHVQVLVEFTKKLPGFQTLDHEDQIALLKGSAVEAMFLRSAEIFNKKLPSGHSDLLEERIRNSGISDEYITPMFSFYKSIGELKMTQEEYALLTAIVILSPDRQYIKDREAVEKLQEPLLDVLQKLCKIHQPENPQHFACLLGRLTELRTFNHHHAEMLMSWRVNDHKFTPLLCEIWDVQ
The series is described as follows: Gal4-LBD luciferase selectivity test, FXR.
Protocol: as §2

Series [8] deals with T5, LXRα (Homo sapiens, UniProt Q13133).
T5 sequence (Q13133 209-447 limits assumed): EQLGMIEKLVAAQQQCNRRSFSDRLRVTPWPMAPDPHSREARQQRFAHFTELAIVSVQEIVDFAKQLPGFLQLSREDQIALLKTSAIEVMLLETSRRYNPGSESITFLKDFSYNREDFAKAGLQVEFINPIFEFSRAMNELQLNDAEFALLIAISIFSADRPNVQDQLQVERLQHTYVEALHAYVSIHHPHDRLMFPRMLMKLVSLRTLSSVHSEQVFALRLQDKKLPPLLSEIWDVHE
Put plainly: Gal4-LBD luciferase selectivity test, LXRα.
Protocol: as §2

For series [9], the target named is T6, RORβ (Homo sapiens, UniProt Q92753).
T6 sequence (Q92753 222-460 limits assumed): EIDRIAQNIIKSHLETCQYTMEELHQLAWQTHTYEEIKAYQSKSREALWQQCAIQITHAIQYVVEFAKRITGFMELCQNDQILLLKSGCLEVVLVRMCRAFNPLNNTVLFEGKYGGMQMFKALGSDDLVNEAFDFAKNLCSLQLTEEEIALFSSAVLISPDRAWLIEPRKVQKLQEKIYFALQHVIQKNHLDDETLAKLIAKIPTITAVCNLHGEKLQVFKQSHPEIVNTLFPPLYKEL
Put plainly: Gal4-LBD luciferase selectivity test, RORβ.
Protocol: as §2

The nature of series [10]: Pharmacokinetic evaluations in SD rats. Particulars: Sprague-Dawley, rat, plasma. Type of series: in vivo. As for the experimental part: Experimental materials: the pharmacokinetic analyses were carried out by Shanghai Medicilon Corporation. Sprague-Dawley (SD) rats were provided by Shanghai Super-B&K Laboratory Animal Corp., Ltd.
The stock solution was orally administered to three SD rats at a dose of 25 mg/kg and administered to three SD rats through intravenous injection at a single dose of 5 mg/kg. Blood was collected from jugular veins before the oral administration and 0.25, 0.5, 1, 2, 4, 6, 8 and 24 hours after the oral administration. Blood was collected from jugular veins before the intravenous injection and 0.083, 0.25, 0.5, 1, 2, 4, 6, 8 and 24 hours after the intravenous injection. About 200 μL of the blood samples were collected into heparinized tubes and then immediately centrifuged at 8000 r/min for 6 minutes to obtain blood plasma. The obtained blood plasma was storaged at −80° C. until analysis.

The subject of series [11] is 22Rv1 xenograft. Particulars: for TGI: five days a week for three weeks. As for the experimental part:
Experimental purpose: a xenograft mouse experiment was used for verifying inhibitory effects of the compounds of the present application on tumors in vivo.
Experimental methods: three-week-old male mice (strain: NOD/MrkBomTac-Prkdc^scid) were purchased from Beijing Vital River Laboratory Animal Technology Co., Ltd and used for xenograft tumor establishment. 22Rv1 tumor cells were subcutaneously inoculated on a side of a lower abdomen of each mouse, and each mouse was injected with 3×10^6 cells. […] When the tumor volumes reached about 100 mm^3, the mice were randomly divided into groups (n=6-7 per group) and then administered through oral gavage. […] The length (L) and width (W) of the tumor mass were measured by a caliper, and the volume was expressed in mm^3 and calculated according to the following formula: V=π/6×(L×W^2). TGI was calculated according to the following formula: TGI=[1−(T−T0)/(C−C0)]×100, where T denoted a mean tumor volume on a specific day of the experiment and T0 denoted a mean tumor volume at the beginning of the treatment; similarly, C and C0 denoted a mean tumor volume on a specific day of the experiment and a mean tumor volume of a blank group at the beginning of the treatment, respectively.
Data represented mean tumor volume standard deviation (n=6-7 per group) in each treatment group.

Read-outs that look alike come from different tables or passages of the source.

For the compound `CCS(=O)(=O)c1ccc(C(NC(C)=O)C(=O)Nc2ccc(-c3nc4ccc(C)cc4n3[C@@H](C)c3ccc(C)cc3)cc2)cc1` (single isomer, unassigned) [Example 74], the half-inhibitory concentration (IC50) (commonly the concentration that inhibits the measured activity by half) in series [1] is < 0.1 µM; in series [2] (Homo sapiens, 22Rv1, read-out: Cell Viability IC50 22Rv1) it was 10.4 ± 1.01 µM; in [4], > 20 µM; in series [5], 4.19 ± 0.34 µM; in series [6] (Homo sapiens, read-out: Cell Viability IC50 LNCaP) it was 5.2 ± 0.14 µM; in series [7] it was > 20 µM. Moreover, the IC50 in series [8] and in series [9] was > 20 µM each time. The ΔTm – broadly, the change in melting temperature against a reference sample – at 200 µM in series [3] is < 5 °C.
As for `CCS(=O)(=O)c1ccc(CC(=O)Nc2ccc(-c3nc4ccc(C(F)(F)F)cc4n3[C@H](C)c3ccc(F)cc3)cc2)cc1` [Example 67, (R)-2-(4-(ethylsulfonyl)phenyl)-N-(4-(1-(1-(4-fluorophenyl)ethyl)-6-(trifluoromethyl)-1H-benzo[d]imidazol-2-yl)phenyl)acetamide], the peak level in series [10] (iv (5 mg/kg)) (Cmax) was 18400 ng/mL.
`CCS(=O)(=O)c1ccc(CC(=O)Nc2ccc(-c3nc4ccc(C(F)(F)F)cc4n3[C@@H](C)c3ccc(F)cc3)cc2)cc1` [Example 68, (S)-2-(4-(ethylsulfonyl)phenyl)-N-(4-(1-(1-(4-fluorophenyl)ethyl)-6-(trifluoromethyl)-1H-benzo[d]imidazol-2-yl)phenyl)acetamide]: the maximum concentration (Cmax) (commonly the highest concentration seen after dosing) in series [10] (iv (5 mg/kg)) came to 14800 ng/mL; in [10] (po (25 mg/kg)), 5730 ng/mL. Moreover, the TGI stood at 83% in [11] (10 mg/kg oral) and 109% in series [11] (40 mg/kg oral). In addition, the toxic effect result in series [11] (22Rv1 mouse xenograft models, all doses) is on record as “without any apparent toxic effect”. The “variations of weights of mice during administration” value in series [11] (all doses (10 and 40 mg/kg oral)) is recorded as “no apparent variations in weight”.
Turning to `CCS(=O)(=O)c1ccc(C(NC(C)=O)C(=O)Nc2ccc(-c3nc4cc(C(=O)NC(C)C)ccc4n3[C@@H](C)c3ccc(C)cc3)nc2)cc1` (stereo partly drawn) [Example 84, 2-(5-(2-acetylamino-2-(4-(ethylsulfonyl)phenyl)acetylamino)pyridin-2-yl)-N-isopropyl-1-((S)-1-(p-tolyl)ethyl)-1H-benzo[d]imidazol-5-formamide], the half-inhibitory concentration (IC50) in series [1] lay in the range of 1 to 10 µM. Also, the thermal shift (ΔTm) at 200 µM in series [3] is 5 to 10 °C.
Take `CCS(=O)(=O)c1ccc(CC(=O)Nc2ccc(-c3nc4cc(C)c(C)cc4n3Cc3ccccc3)cc2)cc1` [Example 85, N-(4-(1-benzyl-5,6-dimethyl-1H-benzo[d]imidazol-2-yl)phenyl)-2-(4-(ethylsulfonyl)phenyl)acetamide]: in series [1], the concentration for half-maximal inhibition (IC50) lay within 0.1 to 1 µM. In addition, the ΔTm at 200 µM in series [3] is < 5 °C.
Turning to `CCS(=O)(=O)c1ccc(CC(=O)Nc2ccc(-c3nc4cc(Cl)c(Cl)cc4n3Cc3ccccc3)cc2)cc1` [Example 86, N-(4-(1-benzyl-5,6-dichloro-1H-benzo[d]imidazol-2-yl)phenyl)-2-(4-(ethylsulfonyl)phenyl)acetamide], the 50% inhibitory concentration (IC50) in series [1] was in the range of 0.1 to 1 µM. For the same compound, the ΔTm at 200 µM in [3] is < 5 °C.
For `CCS(=O)(=O)c1ccc(CC(=O)Nc2ccc(-c3nc4ccc(C)cc4[nH]3)cc2)cc1` [Example 87, 2-(4-(ethylsulfonyl)phenyl)-N-(4-(6-methyl-1H-benzo[d]imidazol-2-yl)phenyl)acetamide], the IC50 in [1] was 1 to 10 µM. In [3], the ΔTm at 200 µM is > 10 °C.
As to `OC(c1ccc(-c2ccc(CN3CCN(Cc4ccncc4)CC3)cc2)c(F)c1)(C(F)(F)F)C(F)(F)F` [SR2211, reference compound], the half-inhibitory concentration (IC50) in [2] (read-out: Cell Viability IC50 22Rv1, 22Rv1, 72-96 h) is 13.3 ± 1.22 µM; in series [5] (C4-2B, 72-96 h), 5.38 ± 0.27 µM; in [6] (read-out: Cell Viability IC50 LNCaP, 72-96 h) it was 6.14 ± 0.04 µM.
